Test results taken from US9555039B2, “Piperidine derivatives and compositions for the inhibition of nicotinamide phosphoribosyltransferase (NAMPT)” (Forma TM, LLC., priority 2011, dated 2017).

Legend:
A2780 cells = test: In-vitro cell proliferation assay (SRB, 72 hours); format: cell-based; details: Homo sapiens, sulforhodamine B (SRB) assay
Procedure, shortened: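 Background from media-only plate subtracted; inhibition relative to DMSO-treated cells, value derived by interpolation between two concentrations.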

[1] = molecular target: T1, Recombinant His-tagged NAMPT (Homo sapiens, UniProt P43490); test: Biochemical inhibition assay: NAMPT enzymatic reaction, NMN quantified by mass spectrometry; details: 33 nM NAMPT, 1 μM NAM, 100 μM PRPP, 2.5 mM ATP, 30 minutes at room temperature; read-out: Biochem IC50
T1 construct: His; host or cells: E. coli
T1 sequence (P43490 whole entry): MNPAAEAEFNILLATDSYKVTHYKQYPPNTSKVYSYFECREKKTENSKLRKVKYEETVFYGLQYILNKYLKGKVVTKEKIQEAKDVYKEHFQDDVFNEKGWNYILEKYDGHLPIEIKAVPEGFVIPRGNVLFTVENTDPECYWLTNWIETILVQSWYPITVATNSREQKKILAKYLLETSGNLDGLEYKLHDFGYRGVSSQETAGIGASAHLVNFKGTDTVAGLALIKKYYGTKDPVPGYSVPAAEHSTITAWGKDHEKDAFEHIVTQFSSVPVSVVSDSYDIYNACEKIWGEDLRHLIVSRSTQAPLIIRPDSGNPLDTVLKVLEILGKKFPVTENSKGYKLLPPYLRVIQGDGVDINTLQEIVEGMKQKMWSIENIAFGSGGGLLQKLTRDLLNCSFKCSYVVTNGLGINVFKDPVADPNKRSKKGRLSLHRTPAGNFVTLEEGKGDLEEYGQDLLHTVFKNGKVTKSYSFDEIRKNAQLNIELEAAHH
Procedure, shortened: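 Reaction 30 min at room temperature with 1 μM NAM, 100 μM PRPP, 2.5 mM ATP (final), quenched with formic acid. NMN quantified by RapidFire electrospray MS, normalized to L-cystathionine; IC50 from percent inhibition versus DMSO.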

Compound: O=C(NCCCCC1CCN(C(=O)c2ccc(F)c(F)c2)CC1)c1cc2cnccc2[nH]1 [N-(4-{1-[(3,4-difluorophenyl)carbonyl]piperidin-4-yl}butyl)-1H-pyrrolo[3,2-c]pyridine-2-carboxamide]
- IC50 (A2780 cells): 20.6 nM
- IC50 [1]: 56 nM

Compound: O=C(NCCCCC1CCN(C(=O)c2ccc(F)c(F)c2)CC1)c1ccc2nccn2c1 [N-(4-{1-[(3,4-difluorophenyl)carbonyl]piperidin-4-yl}butyl)imidazo[1,2-a]pyridine-6-carboxamide]
- IC50 (A2780 cells): 66.2 nM
- IC50 [1]: 19 nM

Compound: O=C(NCCCCC1CCN(C(=O)c2ccc(F)c(F)c2)CC1)c1cc2ccncc2s1 [N-(4-{1-[(3,4-difluorophenyl)carbonyl]piperidin-4-yl}butyl)thieno[2,3-c]pyridine-2-carboxamide]
- IC50 (A2780 cells): 100 to 1000 nM
- IC50 [1]: 22.9 nM

Compound: COc1ccc(C(=O)N2CCC(CCCCNC(=O)c3cc4cnccc4[nH]3)CC2)cc1OC [N-(4-{1-[(3,4-dimethoxyphenyl)carbonyl]piperidin-4-yl}butyl)-1H-pyrrolo[3,2-c]pyridine-2-carboxamide]
- IC50 (A2780 cells): 3 nM
- IC50 [1]: 68.6 nM

Compound: COc1ccc(C(=O)N2CCC(CCCCNC(=O)c3ccc4nccn4c3)CC2)cc1OC [N-(4-{1-[(3,4-dimethoxyphenyl)carbonyl]piperidin-4-yl}butyl)imidazo[1,2-a]pyridine-6-carboxamide]
- IC50 (A2780 cells): 2.9 nM
- IC50 [1]: 38.5 nM

Compound: COc1ccc(C(=O)N2CCC(CCCCNC(=O)c3cc4ccncc4s3)CC2)cc1OC [N-(4-{1-[(3,4-dimethoxyphenyl)carbonyl]piperidin-4-yl}butyl)thieno[2,3-c]pyridine-2-carboxamide]
- IC50 (A2780 cells): 6.9 nM
- IC50 [1]: 32.6 nM

Compound: O=C(NCCCCC1CCN(C(=O)c2cc(Cl)cc(Cl)c2)CC1)c1cc2cnccc2[nH]1 [N-(4-{1-[(3,5-dichlorophenyl)carbonyl]piperidin-4-yl}butyl)-1H-pyrrolo[3,2-c]pyridine-2-carboxamide]
- IC50 (A2780 cells): 13 nM
- IC50 [1]: 81.3 nM

Compound: O=C(NCCCCC1CCN(C(=O)c2cc(Cl)cc(Cl)c2)CC1)c1ccc2nccn2c1 [N-(4-{1-[(3,5-dichlorophenyl)carbonyl]piperidin-4-yl}butyl)imidazo[1,2-a]pyridine-6-carboxamide]
- IC50 (A2780 cells): 32.9 nM
- IC50 [1]: 61.6 nM

Compound: O=C(NCCCCC1CCN(C(=O)c2cc(Cl)cc(Cl)c2)CC1)c1cc2ccncc2s1 [N-(4-{1-[(3,5-dichlorophenyl)carbonyl]piperidin-4-yl}butyl)thieno[2,3-c]pyridine-2-carboxamide]
- IC50 (A2780 cells): 51.3 nM
- IC50 [1]: 30 nM

Compound: COc1cc(OC)cc(C(=O)N2CCC(CCCCNC(=O)c3cc4cnccc4[nH]3)CC2)c1 [N-(4-{1-[(3,5-dimethoxyphenyl)carbonyl]piperidin-4-yl}butyl)-1H-pyrrolo[3,2-c]pyridine-2-carboxamide]
- IC50 (A2780 cells): 2.6 nM
- IC50 [1]: 74.1 nM

Compound: COc1cc(OC)cc(C(=O)N2CCC(CCCCNC(=O)c3cc4ccncc4s3)CC2)c1 [N-(4-{1-[(3,5-dimethoxyphenyl)carbonyl]piperidin-4-yl}butyl)thieno[2,3-c]pyridine-2-carboxamide]
- IC50 (A2780 cells): 20.2 nM
- IC50 [1]: 57.1 nM

Compound: O=C(NCCCCC1CCN(S(=O)(=O)c2cccc(Cl)c2)CC1)c1cc2cnccc2[nH]1 [N-(4-{1-[(3-chlorobenzene)sulfonyl]piperidin-4-yl}butyl)-1H-pyrrolo[3,2-c]pyridine-2-carboxamide]
- IC50 (A2780 cells): 27.7 nM
- IC50 [1]: 38.8 nM

Compound: O=C(NCCCCC1CCN(C(=O)c2cccc(Cl)c2)CC1)c1ccc2nccn2c1 [N-(4-{1-[(3-chlorophenyl)carbonyl]piperidin-4-yl}butyl)imidazo[1,2-a]pyridine-6-carboxamide]
- IC50 (A2780 cells): 22.3 nM
- IC50 [1]: 17.1 nM

Compound: O=C(NCCCCC1CCN(C(=O)c2cccc(Cl)c2)CC1)c1cc2ccncc2s1 [N-(4-{1-[(3-chlorophenyl)carbonyl]piperidin-4-yl}butyl)thieno[2,3-c]pyridine-2-carboxamide]
- IC50 (A2780 cells): 45.5 nM
- IC50 [1]: 33.4 nM

Compound: CCOc1cccc(C(=O)N2CCC(CCCCNC(=O)c3cc4cnccc4[nH]3)CC2)c1 [N-(4-{1-[(3-ethoxyphenyl)carbonyl]piperidin-4-yl}butyl)-1H-pyrrolo[3,2-c]pyridine-2-carboxamide]
- IC50 (A2780 cells): 11 nM
- IC50 [1]: 85.1 nM

Compound: CCOc1cccc(C(=O)N2CCC(CCCCNC(=O)c3ccc4nccn4c3)CC2)c1 [N-(4-{1-[(3-ethoxyphenyl)carbonyl]piperidin-4-yl}butyl)imidazo[1,2-a]pyridine-6-carboxamide]
- IC50 (A2780 cells): 13.2 nM
- IC50 [1]: 10.2 nM

Compound: CCOc1cccc(C(=O)N2CCC(CCCCNC(=O)c3cc4ccncc4s3)CC2)c1 [N-(4-{1-[(3-ethoxyphenyl)carbonyl]piperidin-4-yl}butyl)thieno[2,3-c]pyridine-2-carboxamide]
- IC50 (A2780 cells): 76.5 nM
- IC50 [1]: 39.1 nM

Compound: Cc1c(F)cccc1C(=O)N1CCC(CCCCNC(=O)c2cc3cnccc3[nH]2)CC1 [N-(4-{1-[(3-fluoro-2-methylphenyl)carbonyl]piperidin-4-yl}butyl)-1H-pyrrolo[3,2-c]pyridine-2-carboxamide]
- IC50 (A2780 cells): 3.1 nM
- IC50 [1]: 20.5 nM

Compound: Cc1c(F)cccc1C(=O)N1CCC(CCCCNC(=O)c2ccc3nccn3c2)CC1 [N-(4-{1-[(3-fluoro-2-methylphenyl)carbonyl]piperidin-4-yl}butyl)imidazo[1,2-a]pyridine-6-carboxamide]
- IC50 (A2780 cells): 3.5 nM
- IC50 [1]: 13.1 nM

Compound: Cc1c(F)cccc1C(=O)N1CCC(CCCCNC(=O)c2cc3ccncc3s2)CC1 [N-(4-{1-[(3-fluoro-2-methylphenyl)carbonyl]piperidin-4-yl}butyl)thieno[2,3-c]pyridine-2-carboxamide]
- IC50 (A2780 cells): 3.2 nM
- IC50 [1]: 6.8 nM

Compound: COc1ccc(C(=O)N2CCC(CCCCNC(=O)c3cc4cnccc4[nH]3)CC2)cc1F [N-(4-{1-[(3-fluoro-4-methoxyphenyl)carbonyl]piperidin-4-yl}butyl)-1H-pyrrolo[3,2-c]pyridine-2-carboxamide]
- IC50 (A2780 cells): 21 nM
- IC50 [1]: 63.1 nM

Compound: COc1ccc(C(=O)N2CCC(CCCCNC(=O)c3ccc4nccn4c3)CC2)cc1F [N-(4-{1-[(3-fluoro-4-methoxyphenyl)carbonyl]piperidin-4-yl}butyl)imidazo[1,2-a]pyridine-6-carboxamide]
- IC50 (A2780 cells): 65.2 nM
- IC50 [1]: 20.2 nM

Compound: COc1ccc(C(=O)N2CCC(CCCCNC(=O)c3cc4ccncc4s3)CC2)cc1F [N-(4-{1-[(3-fluoro-4-methoxyphenyl)carbonyl]piperidin-4-yl}butyl)thieno[2,3-c]pyridine-2-carboxamide]
- IC50 (A2780 cells): 100 to 1000 nM
- IC50 [1]: 71.4 nM

Compound: Cc1ccc(C(=O)N2CCC(CCCCNC(=O)c3cc4cnccc4[nH]3)CC2)cc1F [N-(4-{1-[(3-fluoro-4-methylphenyl)carbonyl]piperidin-4-yl}butyl)-1H-pyrrolo[3,2-c]pyridine-2-carboxamide]
- IC50 (A2780 cells): 22.4 nM
- IC50 [1]: 77.1 nM

Compound: Cc1ccc(C(=O)N2CCC(CCCCNC(=O)c3cc4ccncc4s3)CC2)cc1F [N-(4-{1-[(3-fluoro-4-methylphenyl)carbonyl]piperidin-4-yl}butyl)thieno[2,3-c]pyridine-2-carboxamide]
- IC50 (A2780 cells): 100 to 1000 nM
- IC50 [1]: 41.7 nM

Compound: O=C(NCCCCC1CCN(C(=O)c2cccc(F)c2)CC1)c1cc2cnccc2[nH]1 [N-(4-{1-[(3-fluorophenyl)carbonyl]piperidin-4-yl}butyl)-1H-pyrrolo[3,2-c]pyridine-2-carboxamide]
- IC50 (A2780 cells): 3.3 nM
- IC50 [1]: 16.4 nM

Compound: O=C(NCCCCC1CCN(C(=O)c2cccc(F)c2)CC1)c1ccc2nccn2c1 [N-(4-{1-[(3-fluorophenyl)carbonyl]piperidin-4-yl}butyl)imidazo[1,2-a]pyridine-6-carboxamide]
- IC50 (A2780 cells): 10.3 nM
- IC50 [1]: 9.2 nM

Compound: O=C(NCCCCC1CCN(C(=O)c2cccc(F)c2)CC1)c1cc2ccncc2s1 [N-(4-{1-[(3-fluorophenyl)carbonyl]piperidin-4-yl}butyl)thieno[2,3-c]pyridine-2-carboxamide]
- IC50 (A2780 cells): 7.4 nM
- IC50 [1]: 7.7 nM

Compound: COc1cccc(C(=O)N2CCC(CCCCNC(=O)c3cc4ccncc4s3)CC2)c1 [N-(4-{1-[(3-methoxyphenyl)carbonyl]piperidin-4-yl}butyl)thieno[2,3-c]pyridine-2-carboxamide]
- IC50 (A2780 cells): 11 nM
- IC50 [1]: 26.1 nM

Compound: COc1cc(Cl)ccc1C(=O)N1CCC(CCCCNC(=O)c2cc3cnccc3[nH]2)CC1 [N-(4-{1-[(4-chloro-2-methoxyphenyl)carbonyl]piperidin-4-yl}butyl)-1H-pyrrolo[3,2-c]pyridine-2-carboxamide]
- IC50 (A2780 cells): 6.1 nM
- IC50 [1]: 62.1 nM

Compound: COc1cc(Cl)ccc1C(=O)N1CCC(CCCCNC(=O)c2ccc3nccn3c2)CC1 [N-(4-{1-[(4-chloro-2-methoxyphenyl)carbonyl]piperidin-4-yl}butyl)imidazo[1,2-a]pyridine-6-carboxamide]
- IC50 (A2780 cells): 27 nM
- IC50 [1]: 80.6 nM

Compound: COc1cc(Cl)ccc1C(=O)N1CCC(CCCCNC(=O)c2cc3ccncc3s2)CC1 [N-(4-{1-[(4-chloro-2-methoxyphenyl)carbonyl]piperidin-4-yl}butyl)thieno[2,3-c]pyridine-2-carboxamide]
- IC50 (A2780 cells): 13 nM
- IC50 [1]: 15.5 nM

Compound: O=C(NCCCCC1CCN(S(=O)(=O)c2ccc(Cl)cc2)CC1)c1cc2cnccc2[nH]1 [N-(4-{1-[(4-chlorobenzene)sulfonyl]piperidin-4-yl}butyl)-1H-pyrrolo[3,2-c]pyridine-2-carboxamide]
- IC50 (A2780 cells): 27.5 nM
- IC50 [1]: 49.9 nM

Compound: O=C(NCCCCC1CCN(C(=O)c2ccc(Cl)cc2)CC1)c1cc2cnccc2[nH]1 [N-(4-{1-[(4-chlorophenyl)carbonyl]piperidin-4-yl}butyl)-1H-pyrrolo[3,2-c]pyridine-2-carboxamide]
- IC50 (A2780 cells): 65.7 nM
- IC50 [1]: 114 nM

Compound: O=C(NCCCCC1CCN(C(=O)c2ccc(Cl)cc2)CC1)c1ccc2nccn2c1 [N-(4-{1-[(4-chlorophenyl)carbonyl]piperidin-4-yl}butyl)imidazo[1,2-a]pyridine-6-carboxamide]
- IC50 (A2780 cells): 100 to 1000 nM
- IC50 [1]: 84.6 nM
